Assay results: patent US20130065818A1, “Arylamide Compounds And Compositions And Uses Thereof” (POLYMEDIX, priority 2006, published 2013)
Read-outs that look alike come from different tables or passages of the source.

How the values were obtained:
[1] = system: Staphylococcus epidermidis (Coagulase-negative Staphylococcus) fluoroquinolone-resistant; test: MIC, 25 ocular isolates, broth microdilution (Example 8); format: cell-based
Procedure: (§1) • Mueller-Hinton Broth in tubes was inoculated with 25 ocular isolates of Staphylococcus aureus fluoroquinolone-susceptible, Staphylococcus aureus fluoroquinolone-resistant, Staphylococcus epidermidis (Coagulase-negative Staphylococcus) fluoroquinolone-susceptible, Staphylococcus epidermidis (Coagulase-negative Staphylococcus) fluoroquinolone-resistant, Pseudomonas aeruginosa and Serratia marcescens, plus two controls (Staphylococcus aureus and E. coli) and incubated at 37° C. overnight on a shaker set at 250 rpm.
(§2) On the day of testing, a 640 μg/ml (1280 μg/ml for Serratia marcescens and Pseudomonas aeruginosa) concentration was prepared from a 1% stock solution in 0.01% acetic acid, 0.2% BSA in polypropylene tubes.
(§3) Serial doubling dilutions in 0.01% acetic acid, 0.2% BSA in 96 well polypropylene plates, which are used as reservoirs for the inoculation of the test plates, were carried out to obtain serial dilutions of test agents at 10 times the required test concentrations: 640, 320, 160, 80, 40, 20, 10, 5, 2.5, 1.25, and 0.625 μg/ml (1280, 640, 320, 160, 80, 40, 20, 10, 5, 2.5, and 1.25 μg/ml for Serratia marcescens and Pseudomonas aeruginosa).
(§4) Ten μl of diluted 10×test agents was added to each well of one row of the 96 well polypropylene plates from column 2 to column 12 (column 1 is a control for bacteria alone, with no peptide). Test agent concentrations in columns 2-12 were as follows: 64, 32, 16, 8, 4, 2, 1, 0.5, 0.25, 0.125, and 0.0625 μg/ml (128, 64, 32, 16, 8, 4, 2, 1, 0.5, 0.25, and 0.125 μg/ml for Serratia marcescens and Pseudomonas aeruginosa). The same peptide was in each of the 8 rows. One plate contained dilutions of one test agent and 8 bacterial isolates.
(§5) On the day of testing, the overnight bacterial broth cultures of Staphylococcus aureus fluoroquinolone-susceptible, Staphylococcus aureus fluoroquinolone-resistant, Staphylococcus epidermidis (Coagulase-negative Staphylococcus) fluoroquinolone-susceptible, Staphylococcus epidermidis (Coagulase-negative Staphylococcus) fluoroquinolone-resistant, Serratia marcescens, and Pseudomonas aeruginosa, plus two controls (Staphylococcus aureus and E. coli) were diluted in 5 ml of trypticase soy broth to yield turbidity equal to a 0.5 McFarland standard. The final inoculum for MIC testing for Staphylococcus aureus fluoroquinolone-susceptible, Staphylococcus aureus fluoroquinolone-resistant, Staphylococcus epidermidis (Coagulase-negative Staphylococcus) fluoroquinolone-susceptible, Staphylococcus epidermidis (Coagulase-negative Staphylococcus) fluoroquinolone-resistant, Serratia marcescens, and Pseudomonas aeruginosa was achieved by placing 0.05 ml of the turbidity adjusted sample to 5 ml of Mueller-Hinton broth.
(§6) Ninety μl of the bacterial suspensions was dispensed in each well from column 1 to column 12. Each bacterial isolate was placed in one row of a 96 well polypropylene plate containing the test agents. The plates were placed on shaker at 15 minutes at room temperature, and then incubated at 37° C. overnight. MICs were determined visually as the lowest concentration of drug that inhibits visible bacterial growth.

[2] = system: Serratia marcescens; test: as above; format: cell-based
Procedure: as §1, §2, §3, §4, §5, §6

N=C(N)NCCCCC(=O)Nc1cc(C(F)(F)F)cc(NC(=O)c2cnc(C(=O)Nc3cc(C(F)(F)F)cc(NC(=O)CCCCNC(=N)N)c3SCCN)cn2)c1SCCN [Oligomer 5]
0.5 µg/mL: MIC ([1]; Staphylococcus epidermidis, isolate 21—E452, read-out: MIC)
0.25 µg/mL: MIC90 ([1]; 25 isolates, Row 22) | MIC ([1]; Staphylococcus epidermidis, isolate 9—E502, read-out: MIC) | MIC ([1]; Staphylococcus epidermidis, isolate 10—E499, read-out: MIC) | MIC ([1]; Staphylococcus epidermidis, isolate 25—E444, read-out: MIC) | MIC90 ([1]; Staphylococcus epidermidis, 25 isolates, Summary of Results, read-out: MIC90) | MIC90 ([1]; n=25 per group)
> 128 µg/mL: MIC ([2]; Serratia marcescens, isolate 1—K1681, read-out: MIC) | MIC ([2]; Serratia marcescens, isolate 2—K1674, read-out: MIC) | MIC ([2]; Serratia marcescens, isolate 3—K1558, read-out: MIC) | MIC ([2]; Serratia marcescens, isolate 4—K1538, read-out: MIC) | MIC ([2]; Serratia marcescens, isolate 5—K1503, read-out: MIC) | MIC ([2]; Serratia marcescens, isolate 6—K1216, read-out: MIC) | MIC ([2]; Serratia marcescens, isolate 7—K1496, read-out: MIC) | MIC ([2]; Serratia marcescens, isolate 8—K1481, read-out: MIC) | MIC ([2]; Serratia marcescens, isolate 9—K1470, read-out: MIC) | MIC ([2]; Serratia marcescens, isolate 10—K1468, read-out: MIC) | MIC ([2]; Serratia marcescens, isolate 11—K1467, read-out: MIC) | MIC ([2]; Serratia marcescens, isolate 12—K1462, read-out: MIC) | MIC ([2]; Serratia marcescens, isolate 14—K1413, read-out: MIC) | MIC ([2]; Serratia marcescens, isolate 16—K1357, read-out: MIC) | MIC ([2]; Serratia marcescens, isolate 18—K1327, read-out: MIC) | MIC ([2]; Serratia marcescens, isolate 19—K1321, read-out: MIC) | MIC ([2]; Serratia marcescens, isolate 20—K1315, read-out: MIC) | MIC ([2]; Serratia marcescens, isolate 21—K1306, read-out: MIC) | MIC ([2]; Serratia marcescens, isolate 22—K1290, read-out: MIC) | MIC ([2]; Serratia marcescens, isolate 23—K1265, read-out: MIC) | MIC ([2]; Serratia marcescens, isolate 24—K1263, read-out: MIC) | MIC ([2]; Serratia marcescens, isolate 25—K1239, read-out: MIC)
0.03125 to 0.5 µg/mL: Range of MICs ([1]; 25 isolates, Summary of Results, <0.0625 was Replaced with 0.03125) | Range of MICs ([1]; n=25 per group)
256 µg/mL: MIC50 ([2]; 25 isolates, Row 13, >128 was Replaced with 256) | MIC90 ([2]; 25 isolates, Row 22, >128 was Replaced with 256) | MIC ([2]; Serratia marcescens, n=25 per group, read-out: Median MIC) | MIC50 ([2]; Serratia marcescens, 25 isolates, Summary of Results, >128 was Replaced with 256, read-out: MIC50) | MIC90 ([2]; Serratia marcescens, 25 isolates, Summary of Results, >128 was Replaced with 256, read-out: MIC90) | MIC ([2]; Serratia marcescens, 25 isolates, Summary of Results, >128 was Replaced with 256, read-out: Median MIC) | MIC50 ([2]; n=25 per group) | MIC90 ([2]; n=25 per group)
8 to 256 µg/mL: Range of MICs ([2]; 25 isolates, Summary of Results, >128 was Replaced with 256) | Range of MICs ([2]; n=25 per group)
≤ 0.25 µg/mL: MIC ([1]; Staphylococcus epidermidis, 25 ocular isolates, read-out: Median MIC)
128 µg/mL: MIC ([2]; Serratia marcescens, 25 ocular isolates, read-out: Median MIC) | MIC ([2]; Serratia marcescens, isolate 13—K1461, read-out: MIC)
8 µg/mL: MIC ([2]; Serratia marcescens, isolate 15—K1402, read-out: MIC)
64 µg/mL: MIC ([2]; Serratia marcescens, isolate 17—K1351, read-out: MIC)
0.125 µg/mL: MIC50 ([1]; 25 isolates, Row 13) | MIC ([1]; Staphylococcus epidermidis, isolate 1—E515, read-out: MIC) | MIC ([1]; Staphylococcus epidermidis, isolate 2—E514, read-out: MIC) | MIC ([1]; Staphylococcus epidermidis, isolate 3—E513, read-out: MIC) | MIC ([1]; Staphylococcus epidermidis, isolate 4—E510, read-out: MIC) | MIC ([1]; Staphylococcus epidermidis, isolate 5—E509, read-out: MIC) | MIC ([1]; Staphylococcus epidermidis, isolate 6—E508, read-out: MIC) | MIC ([1]; Staphylococcus epidermidis, isolate 7—E505, read-out: MIC) | MIC ([1]; Staphylococcus epidermidis, isolate 8—E503, read-out: MIC) | MIC ([1]; Staphylococcus epidermidis, isolate 11—E498, read-out: MIC) | MIC ([1]; Staphylococcus epidermidis, isolate 12—E494, read-out: MIC) | MIC ([1]; Staphylococcus epidermidis, isolate 13—E493, read-out: MIC) | MIC ([1]; Staphylococcus epidermidis, isolate 14—E485, read-out: MIC) | MIC ([1]; Staphylococcus epidermidis, isolate 16—E486, read-out: MIC) | MIC ([1]; Staphylococcus epidermidis, isolate 17—E480, read-out: MIC) | MIC ([1]; Staphylococcus epidermidis, isolate 18—E475, read-out: MIC) | MIC ([1]; Staphylococcus epidermidis, isolate 19—E471, read-out: MIC) | MIC ([1]; Staphylococcus epidermidis, isolate 20—E458, read-out: MIC) | MIC ([1]; Staphylococcus epidermidis, isolate 22—E450, read-out: MIC) | MIC ([1]; Staphylococcus epidermidis, isolate 23—E440, read-out: MIC) | MIC ([1]; Staphylococcus epidermidis, n=25 per group, read-out: Median MIC) | MIC50 ([1]; Staphylococcus epidermidis, 25 isolates, Summary of Results, read-out: MIC50) | MIC ([1]; Staphylococcus epidermidis, 25 isolates, Summary of Results, read-out: Median MIC) | MIC50 ([1]; n=25 per group)
< 0.0625 µg/mL: MIC ([1]; Staphylococcus epidermidis, isolate 15—E487, read-out: MIC) | MIC ([1]; Staphylococcus epidermidis, isolate 24—E446, read-out: MIC)
